Measurements published in patent publication US7193108B2, “Phenylpropionic acid derivatives” (Ajinomoto Co., Inc., priority 2001, dated 2007).

Target: T1, integrin α 4 β 7 (Homo sapiens, UniProt P13612+P26010)
T1 construct: lymphoma cell strain RPMI-8866 of human B cells, known to express integrin α 4 β 7; endogenous in cells; host or cells: RPMI-8866 (human B cell lymphoma line)
T1 sequence (P13612 34-1032): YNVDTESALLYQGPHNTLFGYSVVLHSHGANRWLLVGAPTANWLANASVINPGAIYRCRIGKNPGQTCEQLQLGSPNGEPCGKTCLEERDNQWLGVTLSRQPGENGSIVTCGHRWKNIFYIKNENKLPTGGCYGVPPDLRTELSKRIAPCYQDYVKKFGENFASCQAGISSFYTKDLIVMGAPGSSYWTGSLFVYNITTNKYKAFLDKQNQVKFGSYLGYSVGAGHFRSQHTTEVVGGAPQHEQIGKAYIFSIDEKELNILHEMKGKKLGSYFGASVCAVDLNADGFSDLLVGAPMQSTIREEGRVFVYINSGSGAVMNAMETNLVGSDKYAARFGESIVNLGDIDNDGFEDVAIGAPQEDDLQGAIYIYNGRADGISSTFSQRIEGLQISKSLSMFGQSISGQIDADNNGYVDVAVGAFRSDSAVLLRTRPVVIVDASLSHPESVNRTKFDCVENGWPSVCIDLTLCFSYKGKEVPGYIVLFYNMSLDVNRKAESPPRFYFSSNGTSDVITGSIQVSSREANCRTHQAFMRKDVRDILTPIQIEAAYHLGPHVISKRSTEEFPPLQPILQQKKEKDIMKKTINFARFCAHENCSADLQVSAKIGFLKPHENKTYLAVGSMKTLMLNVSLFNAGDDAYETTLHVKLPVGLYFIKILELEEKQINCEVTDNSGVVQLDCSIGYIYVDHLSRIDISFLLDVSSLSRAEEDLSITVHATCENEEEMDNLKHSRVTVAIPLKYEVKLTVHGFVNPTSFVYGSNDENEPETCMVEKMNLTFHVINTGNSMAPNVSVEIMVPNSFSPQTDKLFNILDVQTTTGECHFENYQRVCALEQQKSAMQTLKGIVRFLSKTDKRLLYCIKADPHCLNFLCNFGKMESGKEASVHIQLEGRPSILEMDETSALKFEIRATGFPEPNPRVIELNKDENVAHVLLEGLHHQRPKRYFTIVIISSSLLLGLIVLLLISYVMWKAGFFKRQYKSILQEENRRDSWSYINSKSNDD
T1 sequence (P26010 20-798): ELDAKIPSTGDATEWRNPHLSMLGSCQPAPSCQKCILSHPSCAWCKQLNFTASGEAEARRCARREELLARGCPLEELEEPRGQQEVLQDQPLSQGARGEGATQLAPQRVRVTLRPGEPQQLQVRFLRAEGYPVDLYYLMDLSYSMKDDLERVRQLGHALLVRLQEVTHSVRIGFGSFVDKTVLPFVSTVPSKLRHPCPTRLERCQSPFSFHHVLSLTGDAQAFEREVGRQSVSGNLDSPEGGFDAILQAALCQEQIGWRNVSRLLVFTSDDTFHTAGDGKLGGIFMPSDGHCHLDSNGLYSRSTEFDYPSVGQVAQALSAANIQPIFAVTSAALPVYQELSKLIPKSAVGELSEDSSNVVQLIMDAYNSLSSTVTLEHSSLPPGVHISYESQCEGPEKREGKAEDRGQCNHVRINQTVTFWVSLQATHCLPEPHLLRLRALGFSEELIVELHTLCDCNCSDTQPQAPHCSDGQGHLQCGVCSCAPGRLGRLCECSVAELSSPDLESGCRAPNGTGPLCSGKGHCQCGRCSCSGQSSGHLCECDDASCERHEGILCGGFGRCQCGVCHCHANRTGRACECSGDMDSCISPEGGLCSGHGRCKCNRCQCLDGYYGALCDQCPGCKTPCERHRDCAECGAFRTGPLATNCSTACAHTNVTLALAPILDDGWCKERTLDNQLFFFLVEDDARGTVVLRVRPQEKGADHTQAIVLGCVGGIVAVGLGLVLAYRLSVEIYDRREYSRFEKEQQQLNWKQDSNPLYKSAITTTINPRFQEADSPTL
Test: VCAM antagonistic activity (VCAM-1/α 4 β 7 binding assay): binding of RPMI-8866 cells to VCAM-1
Format: cell-based
Settings: fluorescent RPMI-8866 cells binding to recombinant human VCAM-1, 4 mM MnCl2, room temperature 30 minutes
Protocol: (Test Example) VCAM Antagonistic Activity (VCAM-1/α 4 β 7 Binding Assay)
The capacity of a test substance antagonistic to the binding of lymphoma cell strain RPMI-8866 of human B cells, known to express integrin α 4 β 7, to VCAM-1 was determined.
100 μl/well of a solution (500 ng/ml) of recombinant human VCAM-1 (R & D systems) solution diluted with buffer A (0.1 M NaHCO3, pH 9.6) was added to a micro titer plate having 96 wells (Nunc Maxisorp). After the incubation at 4° C. overnight, unbound VCAM-1 was removed by washing once with PBS. After completion of the washing, a buffer (buffer B) obtained by diluting Block Ace (Dainippon Pharmaceutical Co., Ltd.) with PBS to ¼ concentration was added in an amount of 150 μl/well. After the incubation at room temperature for 1 hour, buffer B was removed and the plate was washed with PBS once.
RPMI-8866 cells were incubated in Dulbecco modified Eagle medium containing 10 μg/ml of Calcein-AM (Wako Pure Chemical Industries, Ltd.) (SIGMA, hereinafter referred to as “DMEM”) at 37° C. for 30 minutes to label with fluorescence. The cells were again suspended in a binding buffer (20 mM HEPES, DMEM containing 0.1% BSA) containing 4 mM of MnCl2.
50 μl of a test substance of various concentrations obtained by the dilution with the binding buffer was added to the plate. Immediately thereafter, 50 μl (final volume: 100 μl/well) of the fluorescent RPMI-8866 cells (4×10^6 cells/ml) were added thereto, and they were incubated at room temperature for 30 minutes. After the shaking on a plate shaker (IKA MTS-4) at 800 rpm for 30 seconds, the solution was immediately removed to remove the unbound cells. The fluorescence quantity of the bound cells remaining in the wells was determined with a fluorescent plate reader (Wallac 1420 ARVO multi-label counter) (filter excitation wave length: 485 nm, emission wave length: 535 nm). The fluorescent strength thus obtained is proportional to the number of RPMI-8866 cells bound to VCAM-1 and remaining on the plate. The binding rate of each test material in various concentrations was determined while the fluorescent strength of the test material-free well was determined to be 100%. The concentration IC50 for the 50% binding inhibition was calculated.
The antagonistic activity is shown as A when IC50 is 0.8 μmol/L or less, B when IC50 is above 0.8 μmol/L and 4 μmol/L or less, C when IC50 is above 4 μmol/L and 20 μmol/L or less, and D when IC50 is above 20 μmol/L and 100 μmol/L or less.

Row | IC50 | Compound
1 | 20 to 100 µM | Cn1c(=O)n(-c2ccc(CC(CC(=O)c3ccccc3)C(=O)O)cc2)c(=O)c2ccccc21 (stereo not drawn) [Example 1, 4-phenyl-2-[4-(1-methyl-2,4-dioxo-1,2,3,4-tetrahydroquinazoline-3-yl)benzyl]-4-oxobutanoic acid]
2 | ≤ 0.8 µM | Cn1c(=O)n(-c2ccc(/C=C(\CC(=O)c3c(Cl)cccc3Cl)C(=O)O)cc2)c(=O)c2ccccc21 [Example 5, (E)-2-[2-(2,6-dichlorophenyl)-2-oxoethyl]-3-[4-(1-methyl-2,4-dioxo-1,2,3,4-tetrahydroquinazoline-3-yl)phenyl]acrylic acid]
3 | 20 to 100 µM | Cn1c(=O)n(-c2ccc(CC(CC(O)c3c(Cl)cccc3Cl)C(=O)O)cc2)c(=O)c2ccccc21 (stereo not drawn) [Example 7, 4-(2,6-dichlorophenyl)-4-hydroxy-2-[4-(1-methyl-2,4-dioxo-1,2,3,4-tetrahydroquinazoline-3-yl)benzyl]butanoic acid]

Second part, the molecule before the results:

Row | Compound | IC50
4 | Cn1c(=O)n(-c2ccc(CC(CC(=O)c3c(Cl)cccc3Cl)C(=O)O)cc2)c(=O)c2ccccc21 (stereo not drawn) [Example 2, 4-(2,6-dichlorophenyl)-2-[4-(1-methyl-2,4-dioxo-1,2,3,4-tetrahydroquinazoline-3-yl)benzyl]-4-oxobutanoic acid] | ≤ 0.8 µM
5 | Cn1c(=O)n(-c2ccc(CC(CC(=O)c3c(F)cccc3F)C(=O)O)cc2)c(=O)c2ccccc21 (stereo not drawn) [Example 3, 4-(2,6-difluorophenyl)-2-[4-(1-methyl-2,4-dioxo-1,2,3,4-tetrahydroquinazoline-3-yl)benzyl]-4-oxobutanoic acid] | 0.8 to 4 µM
6 | COC(=O)c1ccccc1NC(=O)Nc1ccc(CC(CC(=O)c2c(Cl)cccc2Cl)C(=O)O)cc1 (stereo not drawn) [Example 6, 4-(2,6-dichlorophenyl)-2-[4-[[(2-methoxycarbonylphenyl)amino]carbonylamino]benzyl]-4-oxobutanoic acid] | 20 to 100 µM
